# Patent US20250122191A1, “COMPOUNDS AS BCL-2 INHIBITORS” (Fochon Biosciences, Ltd, priority 2021, published 2025)
# System: RS4;11-BCL-2 G101V cells
# Test: Cell proliferation assay (MTS), RS4;11-BCL-2 G101V engineered cells
# Assay type: cell-based
# Conditions: Homo sapiens, 120 h, read-out: RS4, 11 BCL2-G101V IC50
# Source text: MTS testing kit was purchased from Promega (Madison, WI, USA). The RPMI-1640, Fetal bovine serum and Penicillin-Streptomycin were purchased from BI (Biological Industries, Beit Haemek, Israel). Puromycin was purchased from Beyotime (shanghai, China). Dimethyl sulfoxide (DMSO) was purchased from Sigma (St. Louis., MO, USA). RS4;11-BCL-2 G101V (Cobioer Lot. #: CBD2021063013P4), RS4;11-BCL-2 D103E (Cobioer Lot. #: CBD2021063013P4), RS4;11-BCL-2 D103Y (Cobioer Lot. #: CBD2022012101P4) and RS4;11-BCL-2 F104L (Cobioer Lot. #: CBD2021063014P4) cells were cultured in RPMI1640 supplemented with 1 ug/mL puromycin, 100 U/mL Penicillin-Streptomycin and 10% FBS.
# To investigate whether a compound is able to inhibit the activity of BCL-2 mutation in cells, a mechanism-based assay using engineered cell lines stably overexpressing BCL-2 mutation (RS4;11-BCL-2 G101V, RS4;11-BCL-2 D103E, RS4;11-BCL-2 D103Y, and RS4;11-BCL-2 F104L) was developed. In this assay, the inhibition of BCL-2 mutation was reflected by the inhibition of cell proliferation of engineered RS4;11 cells. Cells were plated into 96-well plates at optimized cell density (RS4;11-BCL-2 G101V: 5000 cells/well; RS4;11-BCL-2 D103E: 7500 cells/well; RS4;11-BCL-2 D103Y: 7500 cells/well; RS4;11-BCL-2 F104L: 5000 cells/well). Plates were incubated at 37° C., with 5% CO2 for 4 h (RS4;11-BCL-2 G101V, RS4;11-BCL-2 F104L) and 24 h (RS4;11-BCL-2 D103E, RS4;11-BCL-2 D103Y), respectively. Compounds were serially diluted and added to the plates with the final concentrations of 10000, 3333.3, 1111.1, 370.4, 123.5, 41.2, 13.7, 4.6 and 1.5 nM. Plates were incubated at 37° C., with 5% CO2 for 120 h (RS4; 11-BCL-2 G101V, RS4; 11-BCL-2 F104L) and 72 h (RS4;11-BCL-2 D103E, RS4;11-BCL-2 D103Y), respectively. 20 μl MTS was added into each well and the plates were incubated at 37° C., with 5% CO2 exactly for 2 h. The absorbance was measured by a microplate reader at 490 nm. IC50 values were calculated using GraphPad Prism 8.0 software.
row,Structure (SMILES),IC50
1,"COc1nc2[nH]cc(F)c2cc1Oc1cc(N2CCC3(CC2)CC(N2CCN(C4CCC(O)CC4)C[C@H]2c2ccccc2C(C)C)C3)ccc1C(=O)NS(=O)(=O)c1cnc(NC[C@H]2CC[C@](C)(O)CC2)c([N+](=O)[O-])c1 (single isomer, unassigned) [Example 332]",1 nM
2,"COc1ccc(CN2CCN(C3CC4(CCN(c5ccc(C(=O)NS(=O)(=O)c6cnc(NC[C@H]7CC[C@](C)(O)CC7)c([N+](=O)[O-])c6)c(Oc6cc7c(F)c[nH]c7nc6OC)c5)CC4)C3)[C@H](c3ccccc3C3CC3)C2)cc1 [Example 52, 4-(2-((R)-2-(2-cyclopropylphenyl)-4-(4-methoxybenzyl)piperazin-1-yl)-7-azaspiro[3.5]nonan-7-yl)-2-((3-fluoro-6-methoxy-1H-pyrrolo[2,3-b]pyridin-5-yl)oxy)-N-((6-((((1r,4r)-4-hydroxy-4-methylcyclohexyl)methyl)amino)-5-nitropyridin-3-yl)sulfonyl)benzamide]",1 nM
3,"COc1nc2[nH]cc(F)c2cc1Oc1cc(N2CCC3(CC2)CC(N2CCN(Cc4ccnc(N)c4)C[C@H]2c2ccccc2C(C)C)C3)ccc1C(=O)NS(=O)(=O)c1cnc(NC[C@H]2CC[C@](C)(O)CC2)c([N+](=O)[O-])c1 [Example 70, 4-(2-((R)-4-((2-aminopyridin-4-yl)methyl)-2-(2-isopropylphenyl)piperazin-1-yl)-7-azaspiro[3.5]nonan-7-yl)-2-((3-fluoro-6-methoxy-1H-pyrrolo[2,3-b]pyridin-5-yl)oxy)-N-((6-((((1r,4r)-4-hydroxy-4-methylcyclohexyl)methyl)amino)-5-nitropyridin-3-yl)sulfonyl)benzamide]",1 nM
4,"CCOc1nc2[nH]cc(F)c2cc1Oc1cc(N2CCC3(CC2)CC(N2CCN(Cc4ccc(OC)cc4F)C[C@H]2c2ccccc2C(C)C)C3)ccc1C(=O)NS(=O)(=O)c1cnc(NC[C@H]2CC[C@](C)(O)CC2)c([N+](=O)[O-])c1 [Example 106, 2-((6-ethoxy-3-fluoro-1H-pyrrolo[2,3-b]pyridin-5-yl)oxy)-4-(2-((R)-4-(2-fluoro-4-methoxybenzyl)-2-(2-isopropylphenyl)piperazin-1-yl)-7-azaspiro[3.5]nonan-7-yl)-N-((6-((((1r,4r)-4-hydroxy-4-methylcyclohexyl)methyl)amino)-5-nitropyridin-3-yl)sulfonyl)benzamide]",1 nM
5,"COc1nc2[nH]cc(F)c2cc1Oc1cc(N2CCC3(CC2)CC(N2CCN(C4COC4)C[C@H]2c2ccccc2C(C)C)C3)ccc1C(=O)NS(=O)(=O)c1cnc(NC[C@H]2CC[C@](C)(O)CC2)c([N+](=O)[O-])c1 [Example 131, 2-((3-fluoro-6-methoxy-1H-pyrrolo[2,3-b]pyridin-5-yl)oxy)-N-((6-((((1r,4r)-4-hydroxy-4-methylcyclohexyl)methyl)amino)-5-nitropyridin-3-yl)sulfonyl)-4-(2-((R)-2-(2-isopropylphenyl)-4-(oxetan-3-yl)piperazin-1-yl)-7-azaspiro[3.5]nonan-7-yl)benzamide]",1 nM
6,"COc1nc2[nH]cc(F)c2cc1Oc1cc(N2CCC3(CC2)CC(N2CCN(C)C[C@H]2c2ccccc2C(C)C)C3)ccc1C(=O)NS(=O)(=O)c1cnc(NC[C@H]2CC[C@](C)(O)CC2)c([N+](=O)[O-])c1 [Example 137, 2-((3-fluoro-6-methoxy-1H-pyrrolo[2,3-b]pyridin-5-yl)oxy)-N-((6-((((1r,4r)-4-hydroxy-4-methylcyclohexyl)methyl)amino)-5-nitropyridin-3-yl)sulfonyl)-4-(2-((R)-2-(2-isopropylphenyl)-4-methylpiperazin-1-yl)-7-azaspiro[3.5]nonan-7-yl)benzamide]",1 nM
7,"CC(C)c1ccccc1[C@@H]1CN(C)CCN1C1CC2(CCN(c3ccc(C(=O)NS(=O)(=O)c4cnc(NC[C@H]5CC[C@](C)(O)CC5)c([N+](=O)[O-])c4)c(Oc4cnc5[nH]cc(F)c5c4)c3)CC2)C1 [Example 139, 2-((3-fluoro-1H-pyrrolo[2,3-b]pyridin-5-yl)oxy)-N-((6-((((1r,4r)-4-hydroxy-4-methylcyclohexyl)methyl)amino)-5-nitropyridin-3-yl)sulfonyl)-4-(2-((R)-2-(2-isopropylphenyl)-4-methylpiperazin-1-yl)-7-azaspiro[3.5]nonan-7-yl)benzamide]",1 nM
8,"COc1nc2[nH]cc(F)c2cc1Oc1cc(N2CCC3(CC2)CC(N2CCN(C4CC4)C[C@H]2c2ccccc2C(C)C)C3)ccc1C(=O)NS(=O)(=O)c1cnc(NC[C@H]2CC[C@](C)(O)CC2)c([N+](=O)[O-])c1 [Example 143, 4-(2-((R)-4-cyclopropyl-2-(2-isopropylphenyl)piperazin-1-yl)-7-azaspiro[3.5]nonan-7-yl)-2-((3-fluoro-6-methoxy-1H-pyrrolo[2,3-b]pyridin-5-yl)oxy)-N-((6-((((1r,4r)-4-hydroxy-4-methylcyclohexyl)methyl)amino)-5-nitropyridin-3-yl)sulfonyl)benzamide]",1 nM
9,"CC(C)c1ccccc1[C@@H]1CN(C2CC2)CCN1C1CC2(CCN(c3ccc(C(=O)NS(=O)(=O)c4cnc(NC[C@H]5CC[C@](C)(O)CC5)c([N+](=O)[O-])c4)c(Oc4cnc5[nH]cc(F)c5c4)c3)CC2)C1 [Example 145, 4-(2-((R)-4-cyclopropyl-2-(2-isopropylphenyl)piperazin-1-yl)-7-azaspiro[3.5]nonan-7-yl)-2-((3-fluoro-1H-pyrrolo[2,3-b]pyridin-5-yl)oxy)-N-((6-((((1r,4r)-4-hydroxy-4-methylcyclohexyl)methyl)amino)-5-nitropyridin-3-yl)sulfonyl)benzamide]",1 nM
10,"CC(C)c1ccccc1[C@@H]1CN(C2COC2)CCN1C1CC2(CCN(c3ccc(C(=O)NS(=O)(=O)c4cnc(NC[C@H]5CC[C@](C)(O)CC5)c([N+](=O)[O-])c4)c(Oc4cnc5[nH]cc(F)c5c4)c3)CC2)C1 [Example 205, 2-((3-fluoro-1H-pyrrolo[2,3-b]pyridin-5-yl)oxy)-N-((6-((((1r,4r)-4-hydroxy-4-methylcyclohexyl)methyl)amino)-5-nitropyridin-3-yl)sulfonyl)-4-(2-((R)-2-(2-isopropylphenyl)-4-(oxetan-3-yl)piperazin-1-yl)-7-azaspiro[3.5]nonan-7-yl)benzamide]",1 nM
11,"COc1nc2[nH]cc(F)c2cc1Oc1cc(N2CCC3(CC2)CC(N2CCN(Cc4ccc(C#N)cc4)C[C@H]2c2ccccc2C(C)C)C3)ccc1C(=O)NS(=O)(=O)c1cnc(NC[C@H]2CC[C@](C)(O)CC2)c([N+](=O)[O-])c1 [Example 236, 4-(2-((R)-4-(4-cyanobenzyl)-2-(2-isopropylphenyl)piperazin-1-yl)-7-azaspiro[3.5]nonan-7-yl)-2-((3-fluoro-6-methoxy-1H-pyrrolo[2,3-b]pyridin-5-yl)oxy)-N-((6-((((1r,4r)-4-hydroxy-4-methylcyclohexyl)methyl)amino)-5-nitropyridin-3-yl)sulfonyl)benzamide]",1 nM
12,"CCOc1nc2[nH]cc(F)c2cc1Oc1cc(N2CCC3(CC2)CC(N2CCN(Cc4ccc(OC)c5oc(C)nc45)C[C@H]2c2ccccc2C(C)C)C3)ccc1C(=O)NS(=O)(=O)c1cnc(NC[C@H]2CC[C@](C)(O)CC2)c([N+](=O)[O-])c1 [Example 246, 2-((6-ethoxy-3-fluoro-1H-pyrrolo[2,3-b]pyridin-5-yl)oxy)-N-((6-((((1r,4r)-4-hydroxy-4-methylcyclohexyl)methyl)amino)-5-nitropyridin-3-yl)sulfonyl)-4-(2-((R)-2-(2-isopropylphenyl)-4-((7-methoxy-2-methylbenzo[d]oxazol-4-yl)methyl)piperazin-1-yl)-7-azaspiro[3.5]nonan-7-yl)benzamide]",2 nM
13,"COc1cc(CN2CCN(C3CC4(CCN(c5ccc(C(=O)NS(=O)(=O)c6cnc(NC[C@H]7CC[C@](C)(O)CC7)c([N+](=O)[O-])c6)c(Oc6cnc7[nH]cc(F)c7c6)c5)CC4)C3)[C@H](c3ccccc3C(C)C)C2)ncc1C1CC1 [Example 251, 4-(2-((R)-4-((5-cyclopropyl-4-methoxypyridin-2-yl)methyl)-2-(2-isopropylphenyl)piperazin-1-yl)-7-azaspiro [3.5]nonan-7-yl)-2-((3-fluoro-1H-pyrrolo[2,3-b]pyridin-5-yl)oxy)-N-((6-((((1r,4r)-4-hydroxy-4-methylcyclohexyl)methyl)amino)-5-nitropyridin-3-yl)sulfonyl)benzamide]",1 nM
